Source: patent US6015877A, “Compounds for inhibition of proteolysis” (President and Fellows of Harvard College, priority 1996, dated 2000)
Read-outs that look alike come from different tables or passages of the source. Where no end group is shown, it is not given here. The star is where a group is joined. Farnesyl = CC(C)=CCC/C(C)=C/CC/C(C)=C/C*

Key:
[1] = system: isoprenylated protein endoprotease; assay: Inhibition of the solubilized / partially purified enzyme by non-halomethyl ketone inhibitors; format: biochemical, bovine
[2] = system: second small proteolytic activity, apparent molecular mass approximately 60 kDa; assay: Inhibition of the second small peak of proteolytic activity (approximately 60 kDa) after gel filtration; format: biochemical, bovine
Text: These properties of CHAPSO make it ideal, among the detergents tested, for the solubilization of the endoprotease. […] It should be noted that a second small amount of proteolytic activity was also found with an apparent molecular mass of approximately 60 kDa, which amounted to approximately 10% of the major peak, but which chromatographed at a smaller molecular size than the major peak. This smaller peak was not investigate further, for several reasons. Quantitatively, it is not significant. […] It also is no known if the smaller peak of activity i s comprised of an endoproteolytic activity or is simply made up of nonspecific proteases. […] All further studies described here will be relevant to the major solubilized peak of activity.

[3] = target: T1, cysteine protease apopain (Homo sapiens, UniProt P42574); settings: cited from earlier work
T1 sequence (P42574 29-175 limits assumed): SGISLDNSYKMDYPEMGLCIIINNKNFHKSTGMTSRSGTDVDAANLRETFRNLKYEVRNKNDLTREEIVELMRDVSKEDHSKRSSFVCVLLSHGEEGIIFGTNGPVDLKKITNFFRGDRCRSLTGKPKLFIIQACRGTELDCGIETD
T1 sequence (P42574 176-277 limits assumed): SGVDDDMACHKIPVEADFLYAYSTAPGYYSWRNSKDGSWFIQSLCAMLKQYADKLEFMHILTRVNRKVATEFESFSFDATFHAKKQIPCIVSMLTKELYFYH

[4] = target: T2, cysteine protease ICE (interleukin-1β converting enzyme) (Homo sapiens, UniProt P29466); settings: cited from earlier work
T2 sequence (P29466 120-297 limits assumed): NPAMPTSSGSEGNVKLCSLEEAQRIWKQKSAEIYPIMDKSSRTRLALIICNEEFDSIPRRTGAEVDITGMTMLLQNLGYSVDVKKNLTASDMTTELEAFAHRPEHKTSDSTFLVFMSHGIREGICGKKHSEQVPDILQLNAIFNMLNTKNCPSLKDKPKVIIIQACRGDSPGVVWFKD
T2 sequence (P29466 317-404 limits assumed): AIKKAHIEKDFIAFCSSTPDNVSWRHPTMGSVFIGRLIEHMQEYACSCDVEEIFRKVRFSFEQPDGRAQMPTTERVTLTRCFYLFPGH

[5] = system: isoprenylated protein endoprotease; assay: Inhibition of the isoprenylated protein endoprotease by halomethyl ketones (preincubation, 20-fold dilution, Kitz-Wilson); format: biochemical, bovine; settings: for Ki: read-out: K1
Experimental: A typical procedure of inhibition is given here to illustrate the details of this procedure. A CHAPSO-solubilized protein preparation (2.5 mg/mL) or a partially […] protein preparation (0.17 mg/mL) was incubated with chloromethyl ketone inhibitors at 37° C. for 30 minutes. Aliquots were removed at timed intervals and diluted with assay buffer E for the solubilized preparation of with assay buffer D for the partially purified protein preparation in 20-fold. The final protein and substrate concentrations were 0.12 mg/mL (or 8.5 μg of partially purified protein preparation per milliliter) and 2.0 μM, respectively, except as otherwise noted; the residual enzyme activity was assayed as described above. TPCK and BFC-CMK were characterized by kinetic measurements. The bimolecular rate constant Kinh /K1 and pseudo-first-order kinetic rate constant Kinh were obtained using the Kitz-Wilson method (Kitz & Wilson, 1962). According to Kitz-Wilson method, the irreversible modification of an enzyme by an active-site directed inhibitor is given by [drawing 9] where K1 =[E]·[I]/[E·I] and -d([E]+[E·I])/dt=Kinh [E·I]. [I] and [E] are inhibitor and enzyme concentrations at a certain time, respectively. Under conditions here [I]>>[Eo ], which is the enzyme concentration at time zero, [I] is constant. Under conditions where the enzyme-inhibitor solution is extensively diluted before the assay, a simplified equation 2 can be obtained as follows: […]
To further establish the specificity of the inactivation process, several commercially available haloketones were studies as putative inactivators of the endoprotease. The structures of these analogs are shown and their activities are shown in Table V. In these studies, the solubilized protein material was preincubated with a chloromethyl ketone inhibitor at 284 μM (unless otherwise noted) for 30 minutes; then 2.5-μL aliquots of the incubated solution were taken and diluted 20-fold for assay of the residual enzyme activity. […] Save for the dipeptide derivatives (ZGGFCMK and ZAPFCMK) derived from TPCK, the other halomethyl ketones tested are virtually inert.
FIG. 16(A) Time-dependent inhibition. 16B Kitz-Wilson plot (the upper panel) for the inhibition of the isoprenylated protein endoprotease by TPCK. The inhibition studies were carried out at 37° C. using the solubilized endoprotease preparation. Aliquote of the inhibitor-enzyme solution were taken at interval times and diluted by a factor of 20, and the enzyme activity was assayed as described in Methods. (B) (the lower panel) the concentration-dependent inhibition of the endoprotease by TPCK. The inhibition studies were carried out at 37° C. The crude CHAPSO-solubilized endoprotease preparations (0.12 mg/mL) were preincubated for 60 min in 50 μL of buffer E in the presence of 284 μM TPCK or TLCK with 6% DMSO and 2% 2-propanol. After the incubation, the reaction solution was diluted by a factor of 20, and the remaining enzyme activity of the inhibitor-enzyme solution was assayed as described in Methods. Data were represented in mean from duplicate runs.

[6] = system: protease of bovine liver microsomal membranes (isoprenylated protein endoprotease); assay: Inhibition of proteolysis of [3H]-AFC-val-ile-ser by peptides, calf liver microsomes; format: biochemical
Experimental: As expected, the proteolysis of [^3 H]-AFC-val-ile-ser or [^3 H]-(SEQ ID NO: 1) was inhibited by the dipeptide substrate (AFC-val) and by the tripeptide substrate (AFC-val-ile). Incubation of 4 μM substrate along with either 20 μM of the dipeptide or tripeptide led to an approximately 50% diminution in substrate cleavage.

[7] = system: protease of bovine liver microsomal membranes (isoprenylated protein endoprotease); assay: Proteolysis of N-[3H]acetyl isoprenylated peptide substrates by calf liver microsomal membranes (N-[3H]-AFC formation, HPLC)
[8] = system: stereospecific proteolytic enzymatic activity in dog pancreatic microsomes; assay: Proteolysis of tetrapeptide substrates by dog pancreatic microsomes; format: biochemical; settings: extended incubation conditions
Experimental: A similar stereospecific proteolytic enzymatic activity was also found in dog pancreatic microsomes. Under extended incubation conditions, where 54% of the tetrapeptide substrate 1 was cleaved by these microsomes, no proteolysis of D-AFC-val-ile-ser 2 could be detected (<1%).

[9] = system: isoprenylated protein endoprotease; settings: 425 ng partially purified protein preparation in 50 μL
[10] = solubilized endoprotease preparation, 37° C., Kitz-Wilson
[11] = Table 1, same enzyme preparation, average of two determinations ±S.D.
[12] = calf liver microsomal membranes
[13] = former measurement, different microsome preparation from a different animal

**Q.** Which “inhibition of the endoprotease (in words)” value ([1]; 1 mM) does the source give for `c1cnc2c(c1)ccc1cccnc12` [1,10-.phi., N,N'-phenanthroline] here?
**A.** The value was “not inhibited”.

**Q.** What about the “effect on the major (primary) solubilized peak of activity (in words)” value ([1]; CHAPSO-solubilized enzyme after gel filtration) of the same compound?
**A.** The value was “without effect on the primary peak of activity”.

**Q.** And the “enzyme activity (%) detergent extract” value ([1]; inhibitor 1 mM, control 100)?
**A.** The value was 90 ± 10%.

**Q.** And the “inhibition of the smaller peak of proteolytic activity (in words)” value [2]?
**A.** The value was “potently inhibited”.

**Q.** What does the source list for `Cc1ccc(S(=O)(=O)N[C@@H](Cc2ccccc2)C(=O)CCl)cc1` [TPCK, Nα-tosyl-L-phenylalamine chloromethyl ketone]?
**A.** inhibition of apopain (in words) [3]: not; inhibition of ICE (in words) [4]: inactivated; enzyme activity (%) ([5]; 284 μM inhibitor, solubilized protein preincubated 30 minutes, diluted 20-fold, control 100): 43 ± 5%; regeneration of enzyme activity after gel filtration chromatography and 24-h dialysis (in words) ([5]; enzyme preincubated with TPCK): not regenerated; Ki [5]: ~1000 µM; inhibition / inactivation of the endoprotease (in words) ([5]; solubilized endoprotease): inhibit the endoprotease well; Kinh (s^-1) [5, 10]: (1.4 ± 0.6) × 10^-3 s^-1; Kinh /K1 [5, 10]: 1.28 ± 0.1 M⁻¹ s⁻¹; Ki [5, 10]: 1100 ± 500 µM

**Q.** With “AC-val-ile-ser: tetrapeptide substrate with the farnesyl moiety deleted (Ac-CVIS)” as the compound, how does the “inhibition of tetrapeptide substrate processing (in words)” value ([6]; 5-fold excess over tetrapeptide substrate) read?
**A.** The value was “did not interfere with the processing of the substrate”.

**Q.** For “N-Ac-S-all-trans-farnesyl-L-Cys-L-Val-L-Ile [AFC--Val--Ile (1)]”, which “Vmax” value [7, 11] is on record?
**A.** Its value is 57.7 ± 5 pmol/min/mg.

**Q.** And the Km [7, 12]?
**A.** Its Km is 9.2 ± 0.21 µM.

**Q.** And the Vmax [7, 12]?
**A.** Its Vmax is 58 ± 4.9 pmol/min/mg.

**Q.** And the “substrate activity (in words)” value [7, 12]?
**A.** Its value is “substrates for the enzyme”.

**Q.** And the Km [7, 13]?
**A.** The Km was 12.6 µM.

**Q.** And the Vmax [7, 13]?
**A.** Its Vmax is 65.6 pmol/min/mg.

**Q.** What about the “diminution in substrate cleavage” value ([6]; 20 μM peptide, 4 μM [3H]-AFC-val-ile-ser substrate) of the same compound?
**A.** The value was “approximately 50%”.

**Q.** For “N-[^3 H]-acetyl-S-all-trans-farnesyl-D-Cys-L-Val-L-Ile-L-Ser [D-AFC-val-ile-ser]”, which “substrate activity (in words)” value [7, 12] is on record?
**A.** The value was “AFC formation did not occur”.

**Q.** What about the “tetrapeptide cleaved (proteolysis)” value [8] of the same compound?
**A.** The value was under 1%.

**Q.** For “N-[^3 H]acetyl-S-farnesyl-L-cysteinyl-L-valyl-L-isoleucyl-L-methionine [AFC--Val--Ile--Met (9)]”, which Km [7, 11] is on record?
**A.** Its Km is 2.96 ± 0.35 µM.

**Q.** And the “Vmax” value [7, 11]?
**A.** The value was 126.3 ± 4.7 pmol/min/mg.

**Q.** What about the “substrate activity (in words)” value [7, 12] of the same compound?
**A.** The value was “good substrate”.

**Q.** And the Km [9]?
**A.** The Km was 0.65 ± 0.08 µM.

**Q.** And the Vmax [9]?
**A.** Its Vmax is 1.96±0.07 nmol/(min-mg of protein).

**Q.** What does the source list for “N-acetyl-S-farnesyl-L-cysteine-L-val-L-ile-L-ser (Ac-C(Farnesyl)VIS) [substrate 1]”?
**A.** Km [7, 12]: 4.8 ± 0.6 µM; Vmax [7, 12]: 0.236±0.008 nmol/min/mg protein; substrate activity (in words) [7, 12]: substrates for the enzyme; tetrapeptide cleaved (proteolysis) [8]: 54%
